In publication PMC8550792, “Evolution of kinase polypharmacology across HSP90 drug discovery” (Cell Chemical Biology, 2021):

How the values were obtained:
LTK = test system: LTK; design: method as in ChEMBL23 (accessed: 23/08/2018); conditions: average of reported values; ref ChEMBL23 (accessed: 23/08/2018); cited from earlier work
HSP90AB1 = test system: HSP90AB1; design: method as in ChEMBL23 (accessed: 23/08/2018); conditions: average of reported values; ref ChEMBL23 (accessed: 23/08/2018); cited from earlier work
ABL1 = ABL1 (Homo sapiens, UniProt P00519); experiment: HotSpot in vitro kinase radiometric assay; format: biochemical; design: purchased Reaction Biology (HotSpot contract assay)
ABL2/ARG = target: T1, ABL2/ARG (Homo sapiens, UniProt P42684); experiment: HotSpot in vitro kinase radiometric assay; format: biochemical
T1 construct: purchased Reaction Biology (HotSpot contract assay)

FYN = target: T2, FYN (Homo sapiens, UniProt P06241); experiment: HotSpot in vitro kinase radiometric assay; format: biochemical
T2 construct: purchased Reaction Biology (HotSpot contract assay)

DDR1 = DDR1 (Homo sapiens, UniProt Q08345); experiment: HotSpot in vitro kinase radiometric assay; format: biochemical; design: purchased Reaction Biology (HotSpot contract assay)
FGR = target: T3, FGR (Homo sapiens, UniProt P09769); experiment: HotSpot in vitro kinase radiometric assay; format: biochemical
T3 construct: purchased Reaction Biology (HotSpot contract assay)

YES/YES1 = target: T4, YES/YES1 (Homo sapiens, UniProt P07947); experiment: HotSpot in vitro kinase radiometric assay; format: biochemical
T4 construct: purchased Reaction Biology (HotSpot contract assay)

TRKC = target: T5, TRKC (Homo sapiens, UniProt Q16288); experiment: HotSpot in vitro kinase radiometric assay; format: biochemical
T5 construct: purchased Reaction Biology (HotSpot contract assay)

MET = test system: MET; design: method as in ChEMBL23 (accessed: 23/08/2018); conditions: average of reported values; ref ChEMBL23 (accessed: 23/08/2018); cited from earlier work
LYN B = target: T6, LYN B (Homo sapiens, UniProt P07948); experiment: HotSpot in vitro kinase radiometric assay; format: biochemical
T6 construct: purchased Reaction Biology (HotSpot contract assay)
Outline: (§1)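 Off-target screen in a radioisotope catalytic assay: test compounds incubated with each kinase, its substrate, cofactors and 33P- or 32P-labelled ɣ-ATP. Filters retaining labelled product gave the signal.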

c-Src = target: T7, c-Src (Homo sapiens, UniProt P12931); experiment: HotSpot in vitro kinase radiometric assay; format: biochemical
T7 construct: purchased Reaction Biology (HotSpot contract assay)
Outline: as §1

PDK2/PDHK2 = target: T8, PDK2/PDHK2 (Homo sapiens, UniProt Q15119); experiment: HotSpot in vitro kinase radiometric assay; format: biochemical
T8 construct: purchased Reaction Biology (HotSpot contract assay)
Outline: as §1

PDK4/PDKH4 = target: T9, PDK4/PDKH4 (Homo sapiens, UniProt Q16654); experiment: HotSpot in vitro kinase radiometric assay; format: biochemical
T9 construct: purchased Reaction Biology (HotSpot contract assay)
Outline: as §1

BLK = target: T10, BLK (Homo sapiens, UniProt P51451); experiment: HotSpot in vitro kinase radiometric assay; format: biochemical
T10 construct: purchased Reaction Biology (HotSpot contract assay)
Outline: as §1

LCK = target: T11, LCK (Homo sapiens, UniProt P06239); experiment: HotSpot in vitro kinase radiometric assay; format: biochemical
T11 construct: purchased Reaction Biology (HotSpot contract assay)

PEAK1 = target: T12, PEAK1 (Homo sapiens, UniProt Q9H792); experiment: HotSpot in vitro kinase radiometric assay; format: biochemical
T12 construct: purchased Reaction Biology (HotSpot contract assay)

PASK = target: T13, PASK (Homo sapiens, UniProt Q96RG2); experiment: HotSpot in vitro kinase radiometric assay; format: biochemical
T13 construct: purchased Reaction Biology (HotSpot contract assay)
Outline: as §1

TRKA = target: T14, TRKA (Homo sapiens, UniProt P04629); experiment: HotSpot in vitro kinase radiometric assay; format: biochemical
T14 construct: purchased Reaction Biology (HotSpot contract assay)
Outline: as §1

PIM1 = test system: PIM1; design: method as in ChEMBL23 (accessed: 23/08/2018); conditions: average of reported values; ref ChEMBL23 (accessed: 23/08/2018); cited from earlier work

T12 sequence (Q9H792 whole entry): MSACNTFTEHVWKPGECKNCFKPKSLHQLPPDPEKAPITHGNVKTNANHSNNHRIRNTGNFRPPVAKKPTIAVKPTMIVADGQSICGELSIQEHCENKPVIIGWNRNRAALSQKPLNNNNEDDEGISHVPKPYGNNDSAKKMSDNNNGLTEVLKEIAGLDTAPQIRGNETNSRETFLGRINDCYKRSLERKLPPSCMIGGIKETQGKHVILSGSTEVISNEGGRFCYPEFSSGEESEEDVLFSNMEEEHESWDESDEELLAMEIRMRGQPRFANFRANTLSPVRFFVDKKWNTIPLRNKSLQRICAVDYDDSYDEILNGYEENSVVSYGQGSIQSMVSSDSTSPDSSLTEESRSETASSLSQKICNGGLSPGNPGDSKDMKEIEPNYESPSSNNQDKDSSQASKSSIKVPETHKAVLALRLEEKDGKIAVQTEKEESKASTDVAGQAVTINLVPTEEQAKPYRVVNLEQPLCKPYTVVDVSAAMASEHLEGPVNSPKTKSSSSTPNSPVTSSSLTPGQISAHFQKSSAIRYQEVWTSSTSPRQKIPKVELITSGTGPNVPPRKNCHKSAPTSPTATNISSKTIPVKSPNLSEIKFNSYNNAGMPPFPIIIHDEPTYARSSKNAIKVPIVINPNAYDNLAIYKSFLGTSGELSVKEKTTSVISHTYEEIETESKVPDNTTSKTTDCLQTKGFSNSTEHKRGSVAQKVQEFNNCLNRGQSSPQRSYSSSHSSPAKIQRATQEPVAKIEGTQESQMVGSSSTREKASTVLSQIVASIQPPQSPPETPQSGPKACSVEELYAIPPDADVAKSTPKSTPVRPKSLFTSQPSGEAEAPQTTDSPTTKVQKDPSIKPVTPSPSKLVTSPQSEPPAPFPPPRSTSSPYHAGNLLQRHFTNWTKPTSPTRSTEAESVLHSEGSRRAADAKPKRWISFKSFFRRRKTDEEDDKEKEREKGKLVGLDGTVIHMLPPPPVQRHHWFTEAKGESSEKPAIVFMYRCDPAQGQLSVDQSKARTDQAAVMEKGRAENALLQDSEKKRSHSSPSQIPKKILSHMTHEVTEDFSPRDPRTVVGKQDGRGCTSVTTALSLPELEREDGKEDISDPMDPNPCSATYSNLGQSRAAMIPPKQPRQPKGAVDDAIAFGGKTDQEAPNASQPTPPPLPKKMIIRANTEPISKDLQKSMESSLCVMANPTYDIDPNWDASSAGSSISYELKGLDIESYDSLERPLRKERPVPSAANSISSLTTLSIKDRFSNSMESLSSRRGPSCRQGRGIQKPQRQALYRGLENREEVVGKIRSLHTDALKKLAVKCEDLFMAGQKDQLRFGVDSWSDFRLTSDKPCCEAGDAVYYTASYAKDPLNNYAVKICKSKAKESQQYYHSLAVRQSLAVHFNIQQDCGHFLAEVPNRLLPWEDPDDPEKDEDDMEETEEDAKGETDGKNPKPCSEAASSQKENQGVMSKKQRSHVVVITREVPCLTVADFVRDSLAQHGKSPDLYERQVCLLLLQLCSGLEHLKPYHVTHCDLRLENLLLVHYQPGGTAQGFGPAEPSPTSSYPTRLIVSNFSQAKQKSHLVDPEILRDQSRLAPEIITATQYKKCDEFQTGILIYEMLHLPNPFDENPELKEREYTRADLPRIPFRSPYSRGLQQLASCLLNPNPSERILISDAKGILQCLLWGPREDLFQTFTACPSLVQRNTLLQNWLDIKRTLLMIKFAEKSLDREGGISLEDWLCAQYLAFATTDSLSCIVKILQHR
T9 sequence (Q16654 whole entry): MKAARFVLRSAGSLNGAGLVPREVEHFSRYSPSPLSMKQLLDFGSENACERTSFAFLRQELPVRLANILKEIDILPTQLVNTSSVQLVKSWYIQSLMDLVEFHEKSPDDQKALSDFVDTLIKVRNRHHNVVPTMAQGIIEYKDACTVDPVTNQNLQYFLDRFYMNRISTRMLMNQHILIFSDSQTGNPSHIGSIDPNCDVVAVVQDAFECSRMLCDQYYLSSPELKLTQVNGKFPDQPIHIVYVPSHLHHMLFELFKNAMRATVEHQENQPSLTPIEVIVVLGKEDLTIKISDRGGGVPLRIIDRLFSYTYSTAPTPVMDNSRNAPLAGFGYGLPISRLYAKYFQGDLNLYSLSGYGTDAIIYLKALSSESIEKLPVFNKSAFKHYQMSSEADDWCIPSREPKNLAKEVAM
T6 sequence (P07948 1-491 isoform P07948-2): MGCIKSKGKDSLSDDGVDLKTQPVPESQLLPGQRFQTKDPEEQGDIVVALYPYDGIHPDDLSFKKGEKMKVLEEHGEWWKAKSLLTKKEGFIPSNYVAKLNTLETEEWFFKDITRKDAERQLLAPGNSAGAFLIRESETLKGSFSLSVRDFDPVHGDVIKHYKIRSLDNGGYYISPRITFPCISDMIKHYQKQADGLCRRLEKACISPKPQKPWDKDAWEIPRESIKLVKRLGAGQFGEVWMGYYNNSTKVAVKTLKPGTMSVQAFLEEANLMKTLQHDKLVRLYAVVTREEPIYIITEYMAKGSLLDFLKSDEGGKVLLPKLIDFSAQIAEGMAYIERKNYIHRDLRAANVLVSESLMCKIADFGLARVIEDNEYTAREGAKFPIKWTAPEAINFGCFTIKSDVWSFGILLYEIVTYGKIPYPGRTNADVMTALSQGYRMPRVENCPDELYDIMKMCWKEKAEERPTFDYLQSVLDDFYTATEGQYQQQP
T10 sequence (P51451 whole entry): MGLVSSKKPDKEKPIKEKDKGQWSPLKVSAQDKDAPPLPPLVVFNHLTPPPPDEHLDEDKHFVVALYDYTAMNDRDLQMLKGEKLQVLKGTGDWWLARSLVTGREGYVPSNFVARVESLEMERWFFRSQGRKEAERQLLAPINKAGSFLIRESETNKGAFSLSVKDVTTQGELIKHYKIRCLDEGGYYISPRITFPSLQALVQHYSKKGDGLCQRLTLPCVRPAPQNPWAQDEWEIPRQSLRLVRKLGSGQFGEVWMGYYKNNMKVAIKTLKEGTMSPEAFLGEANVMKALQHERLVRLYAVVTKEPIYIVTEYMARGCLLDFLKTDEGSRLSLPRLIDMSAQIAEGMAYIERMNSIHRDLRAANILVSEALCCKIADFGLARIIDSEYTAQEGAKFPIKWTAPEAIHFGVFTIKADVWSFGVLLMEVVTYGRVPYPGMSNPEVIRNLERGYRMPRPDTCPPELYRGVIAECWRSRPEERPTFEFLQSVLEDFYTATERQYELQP
T3 sequence (P09769 whole entry): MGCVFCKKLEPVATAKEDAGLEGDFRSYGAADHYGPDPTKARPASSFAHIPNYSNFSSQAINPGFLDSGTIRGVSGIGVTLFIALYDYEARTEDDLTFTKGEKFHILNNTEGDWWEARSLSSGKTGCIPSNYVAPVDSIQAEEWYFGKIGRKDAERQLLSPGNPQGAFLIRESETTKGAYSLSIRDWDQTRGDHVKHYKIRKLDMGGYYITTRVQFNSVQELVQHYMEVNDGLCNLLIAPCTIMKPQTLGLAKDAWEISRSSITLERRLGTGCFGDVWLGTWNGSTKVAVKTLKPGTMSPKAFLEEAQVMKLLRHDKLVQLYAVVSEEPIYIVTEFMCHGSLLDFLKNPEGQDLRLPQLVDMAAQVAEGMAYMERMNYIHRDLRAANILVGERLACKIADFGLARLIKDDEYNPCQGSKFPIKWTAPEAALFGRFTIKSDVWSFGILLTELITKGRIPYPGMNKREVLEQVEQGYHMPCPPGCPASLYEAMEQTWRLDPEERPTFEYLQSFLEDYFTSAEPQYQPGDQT
T11 sequence (P06239 whole entry): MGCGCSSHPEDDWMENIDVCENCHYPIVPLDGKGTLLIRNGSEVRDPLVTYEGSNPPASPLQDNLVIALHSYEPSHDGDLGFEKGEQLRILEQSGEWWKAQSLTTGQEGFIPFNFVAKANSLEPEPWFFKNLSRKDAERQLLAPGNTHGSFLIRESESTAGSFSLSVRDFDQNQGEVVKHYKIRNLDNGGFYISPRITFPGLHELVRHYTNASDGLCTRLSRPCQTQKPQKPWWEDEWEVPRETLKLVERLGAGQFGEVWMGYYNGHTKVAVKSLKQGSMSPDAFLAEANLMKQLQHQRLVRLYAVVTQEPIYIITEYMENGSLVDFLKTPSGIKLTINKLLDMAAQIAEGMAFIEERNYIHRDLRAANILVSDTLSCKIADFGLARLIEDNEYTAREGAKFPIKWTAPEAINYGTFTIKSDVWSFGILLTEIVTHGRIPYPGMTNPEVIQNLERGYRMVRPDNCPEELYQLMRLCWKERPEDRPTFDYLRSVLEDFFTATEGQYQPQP
T5 sequence (Q16288 32-839): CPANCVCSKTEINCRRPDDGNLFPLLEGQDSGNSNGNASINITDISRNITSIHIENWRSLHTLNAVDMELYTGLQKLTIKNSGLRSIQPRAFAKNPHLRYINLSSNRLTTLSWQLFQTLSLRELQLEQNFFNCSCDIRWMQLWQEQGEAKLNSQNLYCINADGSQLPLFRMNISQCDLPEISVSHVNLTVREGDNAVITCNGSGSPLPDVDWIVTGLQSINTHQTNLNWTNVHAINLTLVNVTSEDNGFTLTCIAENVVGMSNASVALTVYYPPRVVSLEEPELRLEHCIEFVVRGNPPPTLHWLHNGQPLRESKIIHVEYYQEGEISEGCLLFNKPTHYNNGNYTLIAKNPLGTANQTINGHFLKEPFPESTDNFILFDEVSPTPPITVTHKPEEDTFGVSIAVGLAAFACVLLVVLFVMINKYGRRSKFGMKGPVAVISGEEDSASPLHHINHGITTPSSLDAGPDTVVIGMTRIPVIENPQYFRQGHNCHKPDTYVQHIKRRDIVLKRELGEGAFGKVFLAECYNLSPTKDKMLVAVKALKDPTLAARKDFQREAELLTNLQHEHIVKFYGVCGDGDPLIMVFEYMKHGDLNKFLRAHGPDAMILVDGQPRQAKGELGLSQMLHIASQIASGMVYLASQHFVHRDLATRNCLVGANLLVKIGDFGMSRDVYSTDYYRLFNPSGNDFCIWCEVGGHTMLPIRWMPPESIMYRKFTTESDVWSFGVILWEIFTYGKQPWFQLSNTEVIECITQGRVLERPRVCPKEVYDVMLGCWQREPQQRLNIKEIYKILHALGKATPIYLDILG

remaining activity at 10 µM (ABL1; ABL1, 10uM, ATP 40 uM, Data 1, Data 2, read-out: % Enzyme Activity (relative to DMSO controls)): 80%
inhibition at 10 µM (ABL1; read-out: % inhibition at 10 uM: ABL1, 10 μM, Fig 6C median ± standard deviation (n = 2)): 19 ± 2%
remaining activity at 10 µM (ABL2/ARG; ABL2/ARG, 10uM, ATP 30 uM, Data 1, Data 2, read-out: % Enzyme Activity (relative to DMSO controls)): 63.6%
inhibition at 10 µM (ABL2/ARG; read-out: % inhibition at 10 uM: ABL2, 10 μM, Fig 6C median ± standard deviation (n = 2)): 32 ± 7%
remaining activity at 10 µM (FYN; FYN, 10uM, ATP 30 uM, Data 1, Data 2, read-out: % Enzyme Activity (relative to DMSO controls)): 31.4%
inhibition at 10 µM (FYN; read-out: % inhibition at 10 uM: FYN, 10 μM, Fig 6C median ± standard deviation (n = 2)): 69%
remaining activity at 10 µM (DDR1; DDR1, 10uM, ATP 100 uM, Data 1, Data 2, read-out: % Enzyme Activity (relative to DMSO controls)): 20.1%
inhibition at 10 µM (DDR1; read-out: % inhibition at 10 uM: DDR1, 10 μM, Fig 6C median ± standard deviation (n = 2)): 81%
remaining activity at 10 µM (FGR; FGR, 10uM, ATP 50 uM, Data 1, Data 2, read-out: % Enzyme Activity (relative to DMSO controls)): 26.1%
inhibition at 10 µM (FGR; read-out: % inhibition at 10 uM: FGR, 10 μM, Fig 6C median ± standard deviation (n = 2)): 71 ± 4%
remaining activity at 10 µM (YES/YES1; YES/YES1, 10uM, ATP 50 uM, Data 1, Data 2, read-out: % Enzyme Activity (relative to DMSO controls)): 92%
inhibition at 10 µM (YES/YES1; read-out: % inhibition at 10 uM: YES, 10 μM, Fig 6C median ± standard deviation (n = 2)): 9 ± 1%
remaining activity at 10 µM (TRKC; TRKC, 10uM, ATP 100 uM, Data 1, Data 2, read-out: % Enzyme Activity (relative to DMSO controls)): 96.1%
inhibition at 10 µM (TRKC; read-out: % inhibition at 10 uM: TRKC, 10 μM, Fig 6C median ± standard deviation (n = 2)): 5 ± 1%
remaining activity at 10 µM (LYN B; LYN B, 10uM, ATP 20 uM, Data 1, Data 2, read-out: % Enzyme Activity (relative to DMSO controls)): 100%
inhibition at 10 µM (LYN B; read-out: % inhibition at 10 uM: LYN B, 10 μM, Fig 6C median ± standard deviation (n = 2)): -1 ± 1%
remaining activity at 10 µM (c-Src; c-Src, 10uM, ATP 15 uM, Data 1, Data 2, read-out: % Enzyme Activity (relative to DMSO controls)): 86.2%
inhibition at 10 µM (c-Src; read-out: % inhibition at 10 uM: SRC, 10 μM, Fig 6C median ± standard deviation (n = 2)): 14 ± 1%
remaining activity at 10 µM (PDK2/PDHK2; PDK2/PDHK2, 10uM, ATP 15 uM, Data 1, Data 2, read-out: % Enzyme Activity (relative to DMSO controls)): 42.8%
inhibition at 10 µM (PDK2/PDHK2; read-out: % inhibition at 10 uM: PDK2, 10 μM, Fig 6C median ± standard deviation (n = 2)): 50 ± 10%
remaining activity at 10 µM (PDK4/PDKH4; PDK4/PDKH4, 10uM, ATP 30 uM, Data 1, Data 2, read-out: % Enzyme Activity (relative to DMSO controls)): 66.3%
inhibition at 10 µM (PDK4/PDKH4; read-out: % inhibition at 10 uM: PDK4, 10 μM, Fig 6C median ± standard deviation (n = 2)): 33 ± 1%
remaining activity at 10 µM (BLK; BLK, 10uM, ATP 10 uM, Data 1, Data 2, read-out: % Enzyme Activity (relative to DMSO controls)): 15.3%
inhibition at 10 µM (BLK; read-out: % inhibition at 10 uM: BLK, 10 μM, Fig 6C median ± standard deviation (n = 2)): 85 ± 1%
remaining activity at 10 µM (LCK; LCK, 10uM, ATP 15 uM, Data 1, Data 2, read-out: % Enzyme Activity (relative to DMSO controls)): 61.4%
inhibition at 10 µM (LCK; read-out: % inhibition at 10 uM: LCK, 10 μM, Fig 6C median ± standard deviation (n = 2)): 36 ± 4%
% inhibition at 10 uM: PEAK1 (PEAK1; 10 μM, Fig 6C median ± standard deviation (n = 2)): 83 ± 1%
remaining activity at 10 µM (PEAK1; PEAK1, 10uM, ATP 30 uM, Data 1, Data 2, read-out: % Enzyme Activity (relative to DMSO controls)): 16.4%
inhibition at 10 µM (PEAK1; read-out: % inhibition at 10 uM: PEAK1, 10 μM, Fig 6C median ± standard deviation (n = 2)): > 70%
remaining activity at 10 µM (PASK; PASK, 10uM, ATP 50 uM, Data 1, Data 2, read-out: % Enzyme Activity (relative to DMSO controls)): 101%
inhibition at 10 µM (PASK; read-out: % inhibition at 10 uM: PASK, 10 μM, Fig 6C median ± standard deviation (n = 2)): 0%
remaining activity at 10 µM (TRKA; TRKA, 10uM, ATP 100 uM, Data 1, Data 2, read-out: % Enzyme Activity (relative to DMSO controls)): 34.6%
inhibition at 10 µM (TRKA; read-out: % inhibition at 10 uM: TRKA, 10 μM, Fig 6C median ± standard deviation (n = 2)): 66 ± 1%
Compound: CCc1cc(-c2[nH]nc(C)c2-c2ccc3c(c2)OCCO3)c(O)cc1O [CCT018159]
pActivity, LTK (LTK): 5.6
pActivity, HSP90AB1 (HSP90AB1): 6.55
pActivity, MET (MET): 5.6
pActivity, PIM1 (PIM1): 5.8
